In article PMC4243055 (Cell, 2014) one finds Ki data, which are given here for 1 compound.

In this experiment the target is T1, Cdc25 phosphatase (CnCdc25) (Cryptococcus neoformans, UniProt J9VTJ5).
T1 sequence (J9VTJ5 442-662): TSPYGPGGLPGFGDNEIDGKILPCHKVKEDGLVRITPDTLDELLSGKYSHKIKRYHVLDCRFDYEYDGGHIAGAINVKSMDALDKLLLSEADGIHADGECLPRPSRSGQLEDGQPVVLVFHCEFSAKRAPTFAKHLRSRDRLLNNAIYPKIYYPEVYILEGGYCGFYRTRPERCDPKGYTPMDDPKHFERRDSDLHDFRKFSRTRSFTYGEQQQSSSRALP
The experiment in a line: in vitro phosphatase assay with OMFP substrate, Michaelis-Menten kinetics. It is filed as biochemical.

Turning to `O=C1C(NCCN2CCOCC2)=C(Cl)C(=O)c2ncccc21` [NSC 663284, 7-Chloro-6-(2-morpholin-4-ylethylamino)-quinoline-5,8-dione], the Ki (in general, the equilibrium dissociation constant of an inhibitor or competing ligand from its target) is roughly 250 µM.
